Laboratory results reported in patent US20230339889A1, “DERIVATIVES OF 2-OXO-N-(4-(PYRIMIDIN-4-YLOXY/THIO)PHENYL)-1,2-DIHYDROPYRIDINE-3-CARBOXAMIDE FOR USE AS PROTEIN KINASE INHIBITORS FOR THERAPY” (AUCENTRA THERAPEUTICS PTY LTD, priority 2020, published 2023).

Legend:
Format in all cases: biochemical
[1] = biological target: CDK2E (Homo sapiens, UniProt P24941); experiment: ADP Glo Kinase assay; conditions: 1 µM compound; read-out: % Residual enzymatic activity at 1 µM CDK2E
Method: (§1) Inhibition of CDKs and FLT3 were determined using ADP Glo Kinase assays, as previously described in International Patent Publication No WO 2017/020065.

[2] = biological target: CDK4D1 (Homo sapiens, UniProt P11802); experiment: ADP Glo Kinase assay; conditions: 1 µM compound; read-out: % Residual enzymatic activity at 1 µM CDK4D1
Sequence of CDK4D1 (P11802 whole entry): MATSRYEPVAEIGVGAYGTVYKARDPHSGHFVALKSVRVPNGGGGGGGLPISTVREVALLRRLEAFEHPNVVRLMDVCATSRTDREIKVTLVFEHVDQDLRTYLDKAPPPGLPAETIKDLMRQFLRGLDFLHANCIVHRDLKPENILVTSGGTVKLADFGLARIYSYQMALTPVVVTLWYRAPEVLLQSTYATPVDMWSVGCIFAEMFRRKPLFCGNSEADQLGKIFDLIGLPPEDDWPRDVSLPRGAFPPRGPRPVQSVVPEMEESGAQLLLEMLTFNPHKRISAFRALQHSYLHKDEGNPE
Sequence of CDK4D1 (P24385 whole entry partner): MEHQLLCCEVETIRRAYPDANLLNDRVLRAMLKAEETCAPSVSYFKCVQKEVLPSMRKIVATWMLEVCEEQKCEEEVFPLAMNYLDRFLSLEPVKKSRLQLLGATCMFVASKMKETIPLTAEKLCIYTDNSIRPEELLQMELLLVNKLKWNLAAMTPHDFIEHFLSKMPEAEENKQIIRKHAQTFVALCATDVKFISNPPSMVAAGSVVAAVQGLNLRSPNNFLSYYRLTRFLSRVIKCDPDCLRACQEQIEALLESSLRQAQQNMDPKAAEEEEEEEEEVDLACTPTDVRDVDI
Method: as §1

[3] = test system: FLT3-ITD; experiment: ADP Glo Kinase assay; conditions: 1 µM compound
Method: as §1

[4] = biological target: T1, TYRO3 (Homo sapiens, UniProt Q06418); experiment: Filter-binding radiometric kinase activity assay (KinaseProfiler, Eurofins); conditions: 1 µM compound; read-out: % Residual enzymatic activity at 1 µM TYRO3
T1 construct: purchased Eurofins Discovery (Kinase Profiler service)
T1 sequence (Q06418 41-890): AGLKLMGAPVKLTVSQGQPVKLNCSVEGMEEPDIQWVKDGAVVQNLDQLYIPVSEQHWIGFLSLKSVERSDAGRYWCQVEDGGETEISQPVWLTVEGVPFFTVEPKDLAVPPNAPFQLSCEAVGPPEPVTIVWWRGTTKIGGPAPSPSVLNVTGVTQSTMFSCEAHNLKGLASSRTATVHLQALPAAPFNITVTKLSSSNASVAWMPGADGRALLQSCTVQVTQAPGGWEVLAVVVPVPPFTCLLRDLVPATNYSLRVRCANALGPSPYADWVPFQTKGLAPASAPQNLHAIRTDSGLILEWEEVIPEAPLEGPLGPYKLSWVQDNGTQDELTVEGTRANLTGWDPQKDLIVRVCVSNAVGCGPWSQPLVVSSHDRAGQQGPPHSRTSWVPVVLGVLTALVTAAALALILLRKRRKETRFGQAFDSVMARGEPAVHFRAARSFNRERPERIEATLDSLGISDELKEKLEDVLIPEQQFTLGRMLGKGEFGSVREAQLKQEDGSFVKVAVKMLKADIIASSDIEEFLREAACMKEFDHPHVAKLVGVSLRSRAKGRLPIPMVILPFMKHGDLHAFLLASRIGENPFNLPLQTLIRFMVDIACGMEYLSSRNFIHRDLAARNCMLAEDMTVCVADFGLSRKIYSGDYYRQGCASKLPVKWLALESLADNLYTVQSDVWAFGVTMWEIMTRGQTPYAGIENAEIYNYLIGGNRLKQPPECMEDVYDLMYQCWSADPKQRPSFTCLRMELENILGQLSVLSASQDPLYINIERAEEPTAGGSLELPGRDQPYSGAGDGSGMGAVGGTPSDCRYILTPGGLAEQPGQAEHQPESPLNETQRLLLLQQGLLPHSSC

[5] = biological target: T2, MET (Homo sapiens, UniProt P08581); experiment: as above; conditions: 1 µM compound; read-out: % Residual enzymatic activity at 1 µM MET
T2 construct: purchased Eurofins Discovery (Kinase Profiler service)
T2 sequence (P08581 25-1390): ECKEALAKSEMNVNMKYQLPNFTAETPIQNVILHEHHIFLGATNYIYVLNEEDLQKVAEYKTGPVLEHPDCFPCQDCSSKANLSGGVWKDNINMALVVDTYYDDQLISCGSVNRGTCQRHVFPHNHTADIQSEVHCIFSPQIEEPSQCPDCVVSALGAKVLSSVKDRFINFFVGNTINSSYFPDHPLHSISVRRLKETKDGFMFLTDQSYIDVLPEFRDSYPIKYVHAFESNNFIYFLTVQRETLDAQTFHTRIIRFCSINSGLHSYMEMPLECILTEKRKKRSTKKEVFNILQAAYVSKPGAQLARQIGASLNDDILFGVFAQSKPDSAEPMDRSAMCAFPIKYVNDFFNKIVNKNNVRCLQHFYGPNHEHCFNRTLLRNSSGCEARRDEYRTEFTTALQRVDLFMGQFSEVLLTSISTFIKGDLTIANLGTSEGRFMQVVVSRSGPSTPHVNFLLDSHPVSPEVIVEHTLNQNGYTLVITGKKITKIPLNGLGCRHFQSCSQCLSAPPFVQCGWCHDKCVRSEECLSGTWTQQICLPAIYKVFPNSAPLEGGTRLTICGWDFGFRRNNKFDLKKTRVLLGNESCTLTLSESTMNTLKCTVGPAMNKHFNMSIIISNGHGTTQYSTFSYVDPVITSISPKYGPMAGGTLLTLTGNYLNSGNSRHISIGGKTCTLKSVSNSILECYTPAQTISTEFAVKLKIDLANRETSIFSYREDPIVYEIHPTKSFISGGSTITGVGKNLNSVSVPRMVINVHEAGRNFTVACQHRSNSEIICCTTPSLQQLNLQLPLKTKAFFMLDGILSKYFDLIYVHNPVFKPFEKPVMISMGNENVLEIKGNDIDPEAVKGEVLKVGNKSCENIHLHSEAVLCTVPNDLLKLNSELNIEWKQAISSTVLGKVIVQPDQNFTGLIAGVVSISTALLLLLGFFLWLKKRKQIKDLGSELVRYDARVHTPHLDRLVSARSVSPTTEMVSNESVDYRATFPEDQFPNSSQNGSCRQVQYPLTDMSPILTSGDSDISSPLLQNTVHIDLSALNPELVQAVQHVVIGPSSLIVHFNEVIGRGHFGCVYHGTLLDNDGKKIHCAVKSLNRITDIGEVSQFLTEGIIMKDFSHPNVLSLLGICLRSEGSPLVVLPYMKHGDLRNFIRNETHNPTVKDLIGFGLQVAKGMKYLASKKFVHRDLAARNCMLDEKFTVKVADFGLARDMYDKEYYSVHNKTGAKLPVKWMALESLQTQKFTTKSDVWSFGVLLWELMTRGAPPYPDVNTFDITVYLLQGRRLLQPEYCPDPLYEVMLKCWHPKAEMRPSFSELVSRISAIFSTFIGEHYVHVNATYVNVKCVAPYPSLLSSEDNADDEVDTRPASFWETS

[6] = biological target: T3, AXL (Homo sapiens, UniProt P30530); experiment: as above; conditions: 1 µM compound; read-out: % Residual enzymatic activity at 1 µM AXL
T3 construct: purchased Eurofins Discovery (Kinase Profiler service)
T3 sequence (P30530 26-894): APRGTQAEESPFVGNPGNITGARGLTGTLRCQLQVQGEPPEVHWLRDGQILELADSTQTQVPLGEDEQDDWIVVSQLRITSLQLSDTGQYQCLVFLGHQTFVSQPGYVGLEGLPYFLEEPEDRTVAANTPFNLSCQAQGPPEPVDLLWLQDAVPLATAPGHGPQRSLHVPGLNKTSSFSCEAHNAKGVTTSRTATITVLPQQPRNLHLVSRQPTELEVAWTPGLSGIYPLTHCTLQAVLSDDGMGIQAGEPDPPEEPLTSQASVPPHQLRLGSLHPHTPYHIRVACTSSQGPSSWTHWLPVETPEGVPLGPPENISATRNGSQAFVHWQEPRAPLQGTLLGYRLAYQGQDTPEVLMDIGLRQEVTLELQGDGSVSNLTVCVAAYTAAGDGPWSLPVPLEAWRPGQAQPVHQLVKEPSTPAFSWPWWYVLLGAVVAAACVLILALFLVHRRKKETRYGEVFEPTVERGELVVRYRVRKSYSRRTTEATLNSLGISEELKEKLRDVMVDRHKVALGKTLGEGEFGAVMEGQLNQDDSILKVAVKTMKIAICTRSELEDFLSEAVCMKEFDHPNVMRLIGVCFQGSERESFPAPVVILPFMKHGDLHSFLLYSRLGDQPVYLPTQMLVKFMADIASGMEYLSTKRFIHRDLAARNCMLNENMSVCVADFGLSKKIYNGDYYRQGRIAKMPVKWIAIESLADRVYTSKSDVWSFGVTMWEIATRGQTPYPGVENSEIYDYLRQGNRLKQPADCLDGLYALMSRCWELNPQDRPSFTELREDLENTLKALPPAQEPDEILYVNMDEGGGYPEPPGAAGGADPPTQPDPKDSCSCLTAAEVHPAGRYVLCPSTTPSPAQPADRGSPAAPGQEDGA

Nc1ncnc(Oc2ccc(NC(=O)c3cccn(-c4ccc(F)cc4)c3=O)cc2F)c1F [Cmpd 1, N-(4-((6-amino-5-fluoropyrimidin-4-yl)oxy)-3-fluorophenyl)-1-(4-fluorophenyl)-2-oxo-1,2-dihydropyridine-3-carboxamide]
remaining activity at 1 µM [1]: 99%
remaining activity at 1 µM [2]: 40%
% Residual enzymatic activity at 1 µM FLT3-ITD [3]: 50%
remaining activity at 1 µM [4]: -1%
remaining activity at 1 µM [5]: 0%
remaining activity at 1 µM [6]: 13%

Nc1ncnc(Oc2ccc(NC(=O)c3cccn(-c4ccc(F)cc4)c3=O)cc2F)c1Cl [Cmpd 3, N-(4-((6-amino-5-chloropyrimidin-4-yl)oxy)-3-fluorophenyl)-1-(4-fluorophenyl)-2-oxo-1,2-dihydropyridine-3-carboxamide]
remaining activity at 1 µM [1]: 96%
remaining activity at 1 µM [2]: 69%
% Residual enzymatic activity at 1 µM FLT3-ITD [3]: 49%
remaining activity at 1 µM [4]: 0%
remaining activity at 1 µM [5]: -7%
remaining activity at 1 µM [6]: 4%

Nc1ncnc(Oc2ccc(NC(=O)c3cccn(-c4ccc(F)cc4)c3=O)cc2)c1Cl [Cmpd 4, N-(4-((6-amino-5-chloropyrimidin-4-yl)oxy)phenyl)-1-(4-fluorophenyl)-2-oxo-1,2-dihydropyridine-3-carboxamide]
remaining activity at 1 µM [1]: 97%
remaining activity at 1 µM [2]: 48%
% Residual enzymatic activity at 1 µM FLT3-ITD [3]: 33%
remaining activity at 1 µM [4]: 2%
remaining activity at 1 µM [5]: -5%
remaining activity at 1 µM [6]: -1%

Nc1ncnc(Oc2ccc(NC(=O)c3cccn(-c4ccc(F)cc4)c3=O)c(F)c2)c1Cl [Cmpd 5, N-(4-((6-amino-5-chloropyrimidin-4-yl)oxy)-2-fluorophenyl)-1-(4-fluorophenyl)-2-oxo-1,2-dihydropyridine-3-carboxamide]
remaining activity at 1 µM [1]: 92%
remaining activity at 1 µM [2]: 72%
% Residual enzymatic activity at 1 µM FLT3-ITD [3]: 43%
remaining activity at 1 µM [4]: 2%
remaining activity at 1 µM [5]: -5%
remaining activity at 1 µM [6]: -8%

Nc1ncnc(Oc2ccc(NC(=O)c3cccn(-c4ccc(F)cc4)c3=O)cc2)c1F [Cmpd 6, N-(4-((6-amino-5-fluoropyrimidin-4-yl)oxy)phenyl)-1-(4-fluorophenyl)-2-oxo-1,2-dihydropyridine-3-carboxamide]
remaining activity at 1 µM [1]: 89%
remaining activity at 1 µM [2]: 69%
% Residual enzymatic activity at 1 µM FLT3-ITD [3]: 79%
remaining activity at 1 µM [4]: 6%
remaining activity at 1 µM [5]: 8%
remaining activity at 1 µM [6]: 14%

Nc1ncnc(Oc2ccc(NC(=O)c3cccn(-c4ccc(F)cc4)c3=O)c(F)c2)c1F [Cmpd 7, N-(4-((6-amino-5-fluoropyrimidin-4-yl)oxy)-2-fluorophenyl)-1-(4-fluorophenyl)-2-oxo-1,2-dihydropyridine-3-carboxamide]
remaining activity at 1 µM [1]: 80%
remaining activity at 1 µM [2]: 72%
% Residual enzymatic activity at 1 µM FLT3-ITD [3]: 40%
remaining activity at 1 µM [4]: 5%
remaining activity at 1 µM [5]: -6%
remaining activity at 1 µM [6]: 8%
